From US11492345B2, “Compounds and their methods of use” (Praxis Precision Medicines, Inc., priority 2017, dated 2022)

The molecules below were run against T1, human Nav1.6 (hNav1.6) (Homo sapiens, UniProt Q9UQD0) (assay: Modulation of late sodium current (INaL), PatchXpress electrophysiology). Settings: HEK293; 1 μM compound; HEK-293 cells expressing recombinant human Nav channel; late current evoked by 300 nM ATX-II; steady-state inhibition; read-out: INaL v1.6 (1 μM, % Inhibition).
T1 construct: expressed in transfected cells; host or cells: HEK-293 (G418 selection)
T1 sequence (Q9UQD0 whole entry): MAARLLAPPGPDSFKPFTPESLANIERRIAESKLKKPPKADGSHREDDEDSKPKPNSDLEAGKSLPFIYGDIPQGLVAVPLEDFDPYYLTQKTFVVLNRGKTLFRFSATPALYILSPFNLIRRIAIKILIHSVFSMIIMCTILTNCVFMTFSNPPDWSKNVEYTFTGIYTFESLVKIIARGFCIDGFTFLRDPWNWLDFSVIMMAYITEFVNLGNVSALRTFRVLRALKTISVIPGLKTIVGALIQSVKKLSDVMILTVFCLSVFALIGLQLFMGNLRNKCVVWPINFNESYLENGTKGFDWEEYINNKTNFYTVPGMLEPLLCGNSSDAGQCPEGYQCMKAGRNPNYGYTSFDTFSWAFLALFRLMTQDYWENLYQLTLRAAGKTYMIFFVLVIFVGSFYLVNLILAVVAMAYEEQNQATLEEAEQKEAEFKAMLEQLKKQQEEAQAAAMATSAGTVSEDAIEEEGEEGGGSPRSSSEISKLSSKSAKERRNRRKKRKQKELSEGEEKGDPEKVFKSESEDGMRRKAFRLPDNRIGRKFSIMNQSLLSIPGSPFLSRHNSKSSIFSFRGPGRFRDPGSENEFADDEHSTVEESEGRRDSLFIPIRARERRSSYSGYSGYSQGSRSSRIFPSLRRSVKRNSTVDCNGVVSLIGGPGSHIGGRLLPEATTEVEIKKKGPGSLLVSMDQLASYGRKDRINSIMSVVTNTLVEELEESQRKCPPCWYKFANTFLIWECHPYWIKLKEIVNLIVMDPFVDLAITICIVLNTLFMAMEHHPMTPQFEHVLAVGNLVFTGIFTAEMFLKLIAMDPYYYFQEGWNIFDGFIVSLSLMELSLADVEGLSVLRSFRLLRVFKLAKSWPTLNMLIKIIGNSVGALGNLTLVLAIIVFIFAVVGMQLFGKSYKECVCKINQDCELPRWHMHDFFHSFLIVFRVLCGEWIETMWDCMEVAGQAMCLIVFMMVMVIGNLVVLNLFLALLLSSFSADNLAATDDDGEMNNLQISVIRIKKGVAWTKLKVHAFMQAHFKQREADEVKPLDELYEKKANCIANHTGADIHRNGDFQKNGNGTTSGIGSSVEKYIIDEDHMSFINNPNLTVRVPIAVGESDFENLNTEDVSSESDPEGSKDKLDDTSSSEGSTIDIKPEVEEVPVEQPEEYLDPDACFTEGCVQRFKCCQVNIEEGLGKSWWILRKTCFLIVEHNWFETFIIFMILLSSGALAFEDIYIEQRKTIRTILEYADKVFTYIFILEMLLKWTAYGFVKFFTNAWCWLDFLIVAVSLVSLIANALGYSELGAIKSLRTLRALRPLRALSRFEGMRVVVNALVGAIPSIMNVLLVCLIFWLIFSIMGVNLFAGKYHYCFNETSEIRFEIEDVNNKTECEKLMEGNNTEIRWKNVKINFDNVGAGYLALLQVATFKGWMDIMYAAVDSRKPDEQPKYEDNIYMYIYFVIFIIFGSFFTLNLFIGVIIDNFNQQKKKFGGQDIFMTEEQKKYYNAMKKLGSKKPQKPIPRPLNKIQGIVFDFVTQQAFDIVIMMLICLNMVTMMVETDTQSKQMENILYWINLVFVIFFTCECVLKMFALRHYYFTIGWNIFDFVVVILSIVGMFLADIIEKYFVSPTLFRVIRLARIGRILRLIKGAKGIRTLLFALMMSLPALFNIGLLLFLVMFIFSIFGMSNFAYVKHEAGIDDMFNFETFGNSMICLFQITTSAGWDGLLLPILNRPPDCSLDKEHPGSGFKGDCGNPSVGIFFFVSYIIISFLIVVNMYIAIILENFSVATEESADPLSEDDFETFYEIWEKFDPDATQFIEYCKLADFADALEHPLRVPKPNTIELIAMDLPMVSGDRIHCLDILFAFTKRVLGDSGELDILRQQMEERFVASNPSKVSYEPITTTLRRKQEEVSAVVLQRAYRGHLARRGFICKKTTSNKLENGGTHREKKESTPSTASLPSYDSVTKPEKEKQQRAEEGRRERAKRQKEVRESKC
Assay type: cell-based
Protocol: Functional characterization of exemplary compounds to modulate INaL expressed by the Nav1.6 voltage-gated sodium channel was accomplished using the PatchXpress™ high throughput electrophysiology platform (Molecular Devices, Sunnyvale, Calif.). HEK-293 cells expressing recombinant, human Nav1.6 (hNav1.6) were grown in DMEM/high-glucose Dulbecco's modified, 10% FBS, 2 mM sodium pyruvate, 10 mM HEPES and 400 μg/mL G418. Cells were grown to 50%-80% confluency prior to harvesting. Trypsinized cells were washed, allowed to recover for 1 hour and then resuspended in extracellular recording solution at a concentration of 1×10^6 cells/ml. The onboard liquid handling facility of the PatchXpress was used for dispensing cells and applying test compounds. Nav late currents were evoked by the application of 300 nM ATX-II. INaL was evoked by depolarizing pulses to 0 mV for 200 ms from a non-inactivating holding potential (e.g., −120 mV) at a frequency of 0.1 Hz. INaL amplitude and stability were determined by analyzing the mean current amplitude over the final 20 ms of the test pulse. […] Percent steady-state inhibition of INaL was calculated as: [(INaL_compound)/(INaL_control)]*100, where INaL_compound and INaL_control represent INaL recorded in the presence or absence of compound, respectively.

Compound | inhibition at 1 µM [%]
CC(C)n1c(=O)oc2ccc(-c3ccc(OC(F)(F)F)cc3)nc21 [Compound 78] | > 70
CN(CC(F)(F)F)C(=O)Cn1c(=O)oc2ccc(-c3ccc(OC(F)(F)F)cc3)cc21 [Compound 80] | 30 to 70
O=c1oc2ccc(-c3ccc(OC(F)(F)F)cc3)cc2n1Cc1cncnc1 [Compound 84] | > 70
O=c1oc2ccc(-c3ccc(OC(F)(F)F)cc3)nc2n1CCc1ncccn1 [Compound 87] | 30 to 70
CC(O)CCn1c(=O)oc2ccc(-c3ccc(OC(F)(F)F)cc3)nc21 (stereo not drawn) [Compound 89] | > 70
O=c1oc2ncc(-c3ccc(OC(F)(F)F)cc3)cc2n1CCc1ncccn1 [Compound 92] | < 30
[2H]C([2H])([2H])n1c(=O)oc2ccc(-c3ccc(OC(F)(F)F)cc3)nc21 [Compound 93] | > 70
C[C@@H](O)CCn1c(=O)oc2ccc(-c3ccc(OC(F)(F)F)cc3)cc21 [Compound 97] | > 70
O=c1oc2ccc(-c3ccc(OC(F)(F)F)cc3)nc2n1CC1COC1 [Compound 102] | > 70
O=c1oc2ccc(-c3ccc(OC(F)(F)F)cc3)nc2n1Cc1cncnc1 [Compound 103] | > 70
O=c1oc2ccc(-c3ccc(OC(F)(F)F)cc3)cc2n1C[C@@H]1CCCO1 [Compound 104] | > 70
O=c1oc2ccc(-c3ccc(OC(F)(F)F)cc3)cc2n1C[C@H]1CCCO1 [Compound 105] | > 70
CC(=O)N1CCC[C@@H]1Cn1c(=O)oc2ccc(-c3ccc(OC(F)(F)F)cc3)cc21 [Compound 109] | > 70
CS(=O)(=O)N1CCC[C@H]1Cn1c(=O)oc2ccc(-c3ccc(OC(F)(F)F)cc3)cc21 [Compound 113] | 30 to 70
CS(=O)(=O)N1CCC[C@@H]1Cn1c(=O)oc2ccc(-c3ccc(OC(F)(F)F)cc3)cc21 [Compound 118] | < 30
O=c1oc2ccc(-c3ccc(OC(F)(F)F)cc3)cc2n1CCc1cnccn1 [Compound 120] | > 70
O=c1oc2ccc(-c3cnc(OCC(F)(F)F)c(F)c3)nc2n1CCc1ncccn1 [Compound 122] | < 30
O=c1oc2ccc(-c3ccc(OC(F)(F)F)cc3)nc2n1CCc1cncnc1 [Compound 124] | > 70
CO[C@H]1CCN(C(=O)Cn2c(=O)oc3ccc(-c4ccc(OC(F)(F)F)cc4)cc32)C1 [Compound 125] | < 30
O=c1oc2ccc(-c3ccc(OC(F)F)cc3)nc2n1CCc1ncccn1 [Compound 136] | < 30
O=c1oc2ccc(-c3ccc(OC(F)(F)F)cc3)nc2n1Cc1ccncn1 [Compound 141] | 30 to 70
O=C1CCCN1CCn1c(=O)oc2ccc(-c3ccc(OC(F)(F)F)cc3)nc21 [Compound 142] | < 30
O=C(Cn1c(=O)oc2ccc(-c3ccc(OC(F)F)cc3)cc21)N1CCCC1 [Compound 148] | < 30
Cc1noc(C)c1Cn1c(=O)oc2ccc(-c3ccc(OC(F)(F)F)cc3)nc21 [Compound 152] | < 30
Cc1cc(Cn2c(=O)oc3ccc(-c4ccc(OC(F)(F)F)cc4)nc32)on1 [Compound 160] | > 70
Cc1noc(Cn2c(=O)oc3ccc(-c4ccc(OC(F)(F)F)cc4)nc32)n1 [Compound 161] | > 70
Cc1nc(Cn2c(=O)oc3ccc(-c4ccc(OC(F)(F)F)cc4)nc32)no1 [Compound 162] | > 70
Cn1cnnc1Cn1c(=O)oc2ccc(-c3ccc(OC(F)(F)F)cc3)nc21 [Compound 163] | < 30
Cn1ncnc1Cn1c(=O)oc2ccc(-c3ccc(OC(F)(F)F)cc3)nc21 [Compound 164] | 30 to 70

More lines, now with the values ahead:

inhibition at 1 µM [%] | Compound
30 to 70 | O=C(Cn1c(=O)oc2ccc(-c3ccc(OC(F)(F)F)cc3)nc21)N1CCCC1 [Compound 79]
30 to 70 | CCN(C)C(=O)Cn1c(=O)oc2ccc(-c3ccc(OC(F)(F)F)cc3)cc21 [Compound 85]
> 70 | O=c1oc2ccc(-c3ccc(OC(F)(F)F)cc3)nc2n1CC(F)F [Compound 86]
30 to 70 | O=c1oc2ccc(-c3ccc(OC(F)(F)F)cc3)nc2n1CCCO [Compound 90]
30 to 70 | [2H]C([2H])([2H])C([2H])([2H])n1c(=O)oc2ccc(-c3ccc(OC(F)(F)F)cc3)nc21 [Compound 91]
30 to 70 | CCn1c(=O)oc2ccc(-c3cnc(OCC(F)(F)F)c(F)c3)cc21 [Compound 96]
30 to 70 | C[C@H](O)CCn1c(=O)oc2ccc(-c3ccc(OC(F)(F)F)cc3)cc21 [Compound 98]
> 70 | O=c1oc2ccc(-c3ccc(OC(F)(F)F)cc3)nc2n1CC1CCOCC1 [Compound 101]
30 to 70 | CC(=O)N1CCC[C@H]1Cn1c(=O)oc2ccc(-c3ccc(OC(F)(F)F)cc3)cc21 [Compound 111]
< 30 | O=C(Cn1c(=O)oc2ccc(-c3ccc(OC(F)(F)F)cc3)cc21)N1CC[C@@H](O)C1 [Compound 114]
< 30 | O=C(Cn1c(=O)oc2ccc(-c3ccc(OC(F)(F)F)cc3)cc21)N1CC[C@H](O)C1 [Compound 115]
> 70 | O=c1oc2ccc(-c3ccc(OC(F)(F)F)cc3)cc2n1CCc1cncnc1 [Compound 117]
> 70 | O=C(Cn1c(=O)oc2ccc(-c3ccc(OC(F)(F)F)cc3)nc21)N1CCCCC1 [Compound 119]
30 to 70 | Cc1cc(OC(F)(F)F)ccc1-c1ccc2oc(=O)n(CCc3ncccn3)c2n1 [Compound 121]
> 70 | O=c1oc2ccc(-c3ccc(OC(F)(F)F)cc3)nc2n1CCc1cnccn1 [Compound 123]
30 to 70 | CO[C@@H]1CCN(C(=O)Cn2c(=O)oc3ccc(-c4ccc(OC(F)(F)F)cc4)cc32)C1 [Compound 126]
> 70 | O=c1oc2ccc(-c3ccc(OC(F)(F)F)cc3)cc2n1Cc1cnccn1 [Compound 131]

inhibition at 1 µM [%] | Compound
> 70 | O=c1oc2ccc(-c3ccc(OC(F)(F)F)cc3)cc2n1Cc1ccncn1 [Compound 132]
> 70 | C[C@@H]1CCCN1C(=O)Cn1c(=O)oc2ccc(-c3ccc(OC(F)(F)F)cc3)nc21 [Compound 134]
< 30 | O=C(Cn1c(=O)oc2ccc(-c3cnc(OCC(F)(F)F)c(F)c3)nc21)N1CCCC1 [Compound 137]
> 70 | O=c1oc2ccc(-c3ccc(OC(F)(F)F)cc3)nc2n1Cc1cnccn1 [Compound 143]
< 30 | Cc1cc(OC(F)(F)F)ccc1-c1ccc2oc(=O)n(CC(=O)N3CCCC3)c2n1 [Compound 144]
> 70 | O=c1oc2ccc(-c3ccc(OC(F)(F)F)cc3)nc2n1CCc1ccncn1 [Compound 146]
> 70 | O=c1oc2ccc(-c3ccc(OC(F)(F)F)cc3)cc2n1CCc1ccncn1 [Compound 147]
> 70 | Cn1cc(Cn2c(=O)oc3ccc(-c4ccc(OC(F)(F)F)cc4)nc32)cn1 [Compound 151]
30 to 70 | Cc1nnc(Cn2c(=O)oc3ccc(-c4ccc(OC(F)(F)F)cc4)nc32)o1 [Compound 153]
> 70 | Cc1oncc1Cn1c(=O)oc2ccc(-c3ccc(OC(F)(F)F)cc3)nc21 [Compound 154]
> 70 | Cc1nnc(Cn2c(=O)oc3ccc(-c4ccc(OC(F)(F)F)cc4)nc32)s1 [Compound 155]
> 70 | Cc1cc(Cn2c(=O)oc3ccc(-c4ccc(OC(F)(F)F)cc4)nc32)no1 [Compound 156]
30 to 70 | Cn1cnc(Cn2c(=O)oc3ccc(-c4ccc(OC(F)(F)F)cc4)nc32)n1 [Compound 157]
30 to 70 | Cn1nccc1Cn1c(=O)oc2ccc(-c3ccc(OC(F)(F)F)cc3)nc21 [Compound 158]
> 70 | Cc1nc(Cn2c(=O)oc3ccc(-c4ccc(OC(F)(F)F)cc4)nc32)co1 [Compound 159]
30 to 70 | O=c1oc2ccc(-c3ccc(OC(F)(F)F)cc3)nc2n1Cc1cn[nH]c1 [Compound 165]
< 30 | Cc1n[nH]cc1Cn1c(=O)oc2ccc(-c3ccc(OC(F)(F)F)cc3)nc21 [Compound 167]
